Results taken from patent US10112954B2, “Bicyclic heteroaryl derivatives having inhibitory activity for protein kinase” (HANMI PHARM. CO., LTD., priority 2010, dated 2018).

Biological target: T1, FGFR3 (Homo sapiens, UniProt P22607)
T1 construct: purchased Upstate Company
Assay: Inhibition of FGFR3 kinase (fluorescence polarization kinase assay)
Format: biochemical
Conditions: Table 2, class symbols; read-out: FGFR3 IC50
Description: (§1) Inhibition activities of kinases of the inventive compounds (test compounds) prepared in the Examples were assessed and represented as IC50 values.
(§2) Kinases used in Test Examples 1 to 3 were purchased from Upstate Company.
(§3) 100 mM HEPES (pH 7.4), 25 mM MgCl2, 10 mM MnCl2 and 250 μM Na3VO4 were mixed to prepare a kinase buffer. Each of kinases to be measured was diluted to a concentration of 25˜300 ng per one reaction according to its activity with the kinase buffer. Also, each of the test compounds was serially diluted to a concentration starting from 100 nM up to 0.1 nM with the kinase buffer. 10 μl of the serially diluted solution of each of the test compounds and 10 μl of the diluted kinase were added to each well of a 96-well microplate, and the plate was incubated at room temperature for 10 mins. 10 μl of a substrate and 10 μl of ATP were successively added thereto to initiate a kinase reaction, and the resulting mixture was incubated at room temperature for 1 hour. The ATP was used in a form of a solution diluted to a concentration determined according to a kinase's Km value with distilled water. 10˜100 ng/mL poly(Glu, Tyr) 4:1 (Sigma) was used as the substrate. 10 μl of 6 mM EDTA was added to each well and stirred for 5 mins to terminate the kinase reaction. For a measurement of phosphorylation degree, 50 μl of a solution containing anti-phosphotyrosine antibody and fluorescein-labeled phosphopeptide was added to the reaction mixture, followed by incubating for 30 mins. The FP (fluorescence polarization) value of each well was determined with a Victor™ D fluorescence meter (Perkin Elmer Lifesciences).
(§4) IC50, the concentration at which 50% inhibition occurs, was evaluated based on the difference between the final concentration of the test cells and the initial concentration of the cells incubated in a well not-treated with the test compound which was regarded as 100%. IC50 values of the test compounds on the FGFR kinase were shown in Table 2, and those of the test compound obtained in Example 177 on various kinases, in Table 3.

T1 sequence (P22607 23-806, species assumed): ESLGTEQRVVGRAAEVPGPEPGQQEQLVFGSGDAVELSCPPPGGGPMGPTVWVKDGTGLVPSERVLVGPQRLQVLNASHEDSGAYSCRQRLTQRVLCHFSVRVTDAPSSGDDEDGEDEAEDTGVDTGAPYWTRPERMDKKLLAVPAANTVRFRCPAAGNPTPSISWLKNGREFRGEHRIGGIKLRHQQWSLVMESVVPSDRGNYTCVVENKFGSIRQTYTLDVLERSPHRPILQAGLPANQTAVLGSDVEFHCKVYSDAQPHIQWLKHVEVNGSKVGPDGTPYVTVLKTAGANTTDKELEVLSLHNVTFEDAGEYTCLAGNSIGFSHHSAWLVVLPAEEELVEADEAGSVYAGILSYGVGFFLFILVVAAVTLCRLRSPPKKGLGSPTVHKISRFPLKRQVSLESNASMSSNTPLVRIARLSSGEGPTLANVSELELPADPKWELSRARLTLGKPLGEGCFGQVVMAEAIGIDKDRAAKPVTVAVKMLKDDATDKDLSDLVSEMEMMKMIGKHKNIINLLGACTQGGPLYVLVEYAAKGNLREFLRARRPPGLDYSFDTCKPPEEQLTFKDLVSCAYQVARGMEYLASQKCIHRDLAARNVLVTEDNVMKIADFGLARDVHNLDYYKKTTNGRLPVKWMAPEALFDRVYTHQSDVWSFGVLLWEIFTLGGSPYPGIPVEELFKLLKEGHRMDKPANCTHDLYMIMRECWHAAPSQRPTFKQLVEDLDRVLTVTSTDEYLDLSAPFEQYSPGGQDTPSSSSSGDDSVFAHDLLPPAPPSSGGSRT

SMILES	IC50 [nM]
COc1cc(OC)c(Cl)c(NC(=O)c2csc3c(Nc4ccc5cn[nH]c5c4)ncnc23)c1Cl [Example 229, 4-(1H-indazol-6-ylamino)-N-(2,6-dichloro-3,5-dimethoxyphenyl) thieno[3,2-d]pyrimidine-7-carboxamide]	500 to 1000
CCN1CCN(c2cccc(Nc3ncnc4c(C(=O)Nc5c(Cl)c(OC)cc(OC)c5Cl)csc34)c2)CC1 [Example 201, N-(2,6-dichloro-3,5-dimethoxyphenyl)-4-(3-(4-ethylpiperazin-1-yl)phenylamino) thieno[3,2-d]pyrimidine-7-carboxamide]	100 to 500
COc1cc(NC(=O)c2csc3c(N)ncnc23)c2ccoc2c1 [Example 113]	1000 to 5000
COc1cc(OC)c(Cl)c(NC(=O)c2csc3c(Nc4nc5ccc(C)cc5s4)ncnc23)c1Cl [Example 225, N-(2,6-dichloro-3,5-dimethoxyphenyl)-4-(6-methylbenzo[d]thiazol-2-ylamino)thieno[3,2-d]pyrimidine-7-carboxamide]	500 to 1000
COc1cc(OC)c(Cl)c(/C=C/c2csc3c(N)ncnc23)c1Cl [Example 76, 7-(2,6-dichloro-3,5-dimethoxystyryl) thieno[3,2-d]pyrimidine-4-amine]	1000 to 5000
CCN1CCN(Cc2ccc(Nc3ncnc4c(C(=O)Nc5c(Cl)c(OC)cc(OC)c5Cl)csc34)nc2)CC1 [Example 179, N-(2,6-dichloro-3,5-dimethoxyphenyl)-4-(5-((4-ethylpiperazin-1-yl)methyl)pyridin-2-ylamino)thieno[3,2-d]pyrimidine-7-carboxamide]	1 to 100
COc1cc(O)c(Cl)c(NC(=O)c2csc3c(N)ncnc23)c1Cl [Example 217, 4-Amino-N-(2,6-dichloro-3-hydroxy-5-methoxyphenyl)thieno[3,2-d]pyrimidine-7-carboxamide]	100 to 500
CCN1CCN(c2ccc(C(=O)Nc3ncnc4c(C(=O)Nc5c(Cl)c(OC)cc(OC)c5Cl)csc34)cc2)CC1 [Example 204, N-(2,6-dichloro-3,5-dimethoxyphenyl)-4-(4-(4-ethylpiperazin-1-yl)benzamido)thieno[3,2-d]pyrimidine-7-carboxamide]	100 to 500
COc1cc(OC)c(Cl)c(NC(=O)c2csc3c(Nc4cc(NCCN5CCOCC5)ncn4)ncnc23)c1Cl [Example 208, N-(2,6-dichloro-3,5-dimethoxyphenyl)-4-(6-(2-morpholinoethyl-amino)pyrimidin-4-ylamino)thieno[3,2-d]pyrimidine-7-carboxamide]	1 to 100
CCN(CC)CCCCNc1ncnc2c(C(=O)Nc3c(Cl)c(OC)c(Br)c(OC)c3Cl)csc12 [Example 157, N-(4-bromo-2,6-dichloro-3,5-dimethoxyphenyl)-4-(4-(diethylamino)butyl-amino)thieno[3,2-d]pyrimidine-7-carboxamide]	1000 to 5000
COc1cc(OC)c(Cl)c(NC(=O)c2csc3c(NC4CC4)ncnc23)c1Cl [Example 168, 4-(cyclopropylamino)-N-(2,6-dichloro-3,5-dimethoxyphenyl) thieno[3,2-d]pyrimidine-7-carboxamide]	1 to 100
CCN1CCN(c2ccc(C(=O)Nc3ncnc4c(C(=O)Nc5c(Cl)c(OC)c(Br)c(OC)c5Cl)csc34)cc2)CC1 [Example 203, N-(4-bromo-2,6-dichloro-3,5-dimethoxyphenyl)-4-(4-(4-ethylpiperazin-1-yl)benzamido)thieno[3,2-d]pyrimidine-7-carboxamide]	1000 to 5000
COc1cc(OC)c(Cl)c(NC(=O)c2csc3c(Nc4ccc(C)cn4)ncnc23)c1Cl [Example 178, N-(2,6-dichloro-3,5-dimethoxyphenyl)-4-(5-methylpyridin-2-ylamino)thieno[3,2-d]pyrimidine-7-carboxamide]	100 to 500
COc1cc(OC)c(Cl)c(NC(=O)c2csc3c(NS(C)(=O)=O)ncnc23)c1Cl [Example 206, N-(2,6-dichloro-3,5-dimethoxyphenyl)-4-(methylsulfonamido) thieno[3,2-d]pyrimidine-7-carboxamide]	1000 to 5000
CCN1CCN(c2cc(Nc3ncnc4c(C(=O)Nc5c(Cl)c(OC)cc(OC)c5Cl)csc34)ncn2)CC1 [Example 182, N-(2,6-dichloro-3,5-dimethoxyphenyl)-4-(6-(4-ethylpiperazin-1-yl)pyrimidin-4-ylamino)thieno[3,2-d]pyrimidine-7-carboxamide]	1 to 100
CCN1CCN(CCCNc2ncnc3c(C(=O)Nc4c(Cl)c(OC)cc(OC)c4Cl)csc23)CC1 [Example 171, N-(2,6-dichloro-3,5-dimethoxyphenyl)-4-(3-(4-ethylpiperazin-1-yl)propylamino) thieno[3,2-d]pyrimidine-7-carboxamide]	1000 to 5000
COc1cc(OC)c(Cl)c(NC(=O)c2csc3c(Nc4cc(OCCN(C)C)ncn4)ncnc23)c1Cl [Example 209, N-(2,6-dichloro-3,5-dimethoxyphenyl)-4-(6-(2-(dimethylamino)eth-oxy)pyrimidin-4-ylamino)thieno[3,2-d]pyrimidine-7-carboxamide]	100 to 500
COc1cc(NC(=O)c2csc3c(Nc4ccccc4)ncnc23)c2ccoc2c1 [Example 114]	1000 to 5000
COc1cc(OC)c(Cl)c(NC(=O)c2csc3c(Nc4ccc(C(=O)N5CCOCC5)cn4)ncnc23)c1Cl [Example 255, N-(2,6-dichloro-3,5-dimethoxyphenyl)-4-(5-(morpholine-4-carbonyl)pyridin-2-ylamino)thieno[3,2-d]pyrimidine-7-carboxamide]	1 to 100

Other lines, results leading:

IC50 [nM]	SMILES
1 to 100	COc1cc(OC)c(Cl)c(NC(=O)c2csc3c(Nc4ccc(CN5CCNC(=O)C5)cn4)ncnc23)c1Cl [Example 263, N-(2,6-dichloro-3,5-dimethoxyphenyl)-4-(5-((3-oxopiperazin-1-yl)methyl)pyridin-2-ylamino)thieno[3,2-d]pyrimidine-7-carboxamide]
1 to 100	COc1cc(OC)c(Cl)c(NC(=O)c2csc3c(Nc4cc(C)ccn4)ncnc23)c1Cl [Example 270, N-(2,6-dichloro-3,5-dimethoxyphenyl)-4-(4-methylpyridin-2-ylamino)thieno[3,2-d]pyrimidine-7-carboxamide]
1000 to 5000	COc1c(Cl)c(NC(=O)c2csc3c(Nc4ccc(F)c(Cl)c4)ncnc23)c(Cl)c(OC)c1Br [Example 287, N-(4-bromo-2,6-dichloro-3,5-dimethoxyphenyl)-4-(3-chloro-4-fluorophenylamino) thieno[3,2-d]pyrimidine-7-carboxamide]
1000 to 5000	COc1cc(OC)c(Cl)c(NC(=O)c2csc3c(Nc4ccc(CN5CCCC(C(F)(F)F)C5)cn4)ncnc23)c1Cl (stereo not shown) [Example 259, N-(2,6-dichloro-3,5-dimethoxyphenyl)-4-(5-((3-(trifluoromethyl)piperidin-1-yl)methyl)pyridin-2-ylamino)thieno[3,2-d]pyrimidine-7-carboxamide]
1 to 100	COc1cc(OC)c(Cl)c(NC(=O)c2csc3c(Nc4ccc(C(N)=O)cn4)ncnc23)c1Cl [Example 274, 4-(5-carbamoylpyridin-2-ylamino)-N-(2,6-dichloro-3,5-dimethoxyphenyl) thieno[3,2-d]pyrimidine-7-carboxamide]
1 to 100	COc1cc(OC)c(Cl)c(NC(=O)c2csc3c(Nc4ccc(C(=O)NN5CCN(C)CC5)cn4)ncnc23)c1Cl [Example 268, N-(2,6-dichloro-3,5-dimethoxyphenyl)-4-(5-(4-methylpiperazin-1-ylcarbamoyl)pyridin-2-ylamino)thieno[3,2-d]pyrimidine-7-carboxamide]
1 to 100	CCN(CC)C(=O)Cc1ccnc(Nc2ncnc3c(C(=O)Nc4c(Cl)c(OC)cc(OC)c4Cl)csc23)c1 [Example 292, N-(2,6-dichloro-3,5-dimethoxyphenyl)-4-(4-(2-(diethylamino)-2-oxoethyl)pyridin-2-ylamino)thieno[3,2-d]pyrimidine-7-carboxamide]
1 to 100	COc1cc(OC)c(Cl)c(NC(=O)c2csc3c(Nc4cc(CN5CCSC5)ccn4)ncnc23)c1Cl [Example 291, N-(2,6-dichloro-3,5-dimethoxyphenyl)-4-(4-(thiazolidin-3-ylmethyl)pyridin-2-ylamino)thieno[3,2-d]pyrimidine-7-carboxamide]
1000 to 5000	CCN(CC)Cc1cccc(Nc2ncnc3c(C(=O)Nc4c(Cl)c(OC)cc(OC)c4Cl)csc23)n1 [Example 273, N-(2,6-dichloro-3,5-dimethoxyphenyl)-4-(6-((diethylamino)methyl)pyridin-2-ylamino)thieno[3,2-d]pyrimidine-7-carboxamide]
1 to 100	COc1cc(OC)c(Cl)c(NC(=O)c2csc3c(Nc4ccc(CC(=O)N5CCOCC5)cn4)ncnc23)c1Cl [Example 257, N-(2,6-dichloro-3,5-dimethoxyphenyl)-4-(5-(2-morpholino-2-oxoethyl)pyridin-2-ylamino)thieno[3,2-d]pyrimidine-7-carboxamide]

Biological target: T2, FGFR1 (Homo sapiens, UniProt P11362)
T2 construct: purchased Upstate Company
Assay: Inhibition of FGFR1 kinase (fluorescence polarization kinase assay)
Format: biochemical
Conditions: Table 2, class symbols; read-out: FGFR1 IC50
Description: as §1, §2, §3, §4

T2 sequence (P11362 22-822, species assumed): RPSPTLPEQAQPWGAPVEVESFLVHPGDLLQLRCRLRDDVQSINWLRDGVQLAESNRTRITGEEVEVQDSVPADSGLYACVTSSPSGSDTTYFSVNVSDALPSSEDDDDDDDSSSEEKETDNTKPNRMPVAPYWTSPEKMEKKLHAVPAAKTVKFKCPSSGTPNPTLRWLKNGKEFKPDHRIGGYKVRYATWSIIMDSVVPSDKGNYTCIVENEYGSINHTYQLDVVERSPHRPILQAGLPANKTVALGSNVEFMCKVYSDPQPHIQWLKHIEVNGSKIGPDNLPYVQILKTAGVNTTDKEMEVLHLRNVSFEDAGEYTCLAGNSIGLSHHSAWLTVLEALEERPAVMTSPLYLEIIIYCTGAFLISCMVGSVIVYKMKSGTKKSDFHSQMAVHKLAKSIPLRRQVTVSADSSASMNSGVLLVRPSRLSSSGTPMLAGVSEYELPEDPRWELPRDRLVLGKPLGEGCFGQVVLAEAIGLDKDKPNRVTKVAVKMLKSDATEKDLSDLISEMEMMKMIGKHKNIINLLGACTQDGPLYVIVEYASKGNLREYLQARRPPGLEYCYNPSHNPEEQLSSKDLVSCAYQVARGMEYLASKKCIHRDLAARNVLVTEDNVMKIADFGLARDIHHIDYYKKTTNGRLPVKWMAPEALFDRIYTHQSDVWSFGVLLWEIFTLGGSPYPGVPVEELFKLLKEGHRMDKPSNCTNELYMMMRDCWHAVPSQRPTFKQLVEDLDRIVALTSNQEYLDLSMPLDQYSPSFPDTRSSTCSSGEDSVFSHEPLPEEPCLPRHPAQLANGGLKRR

IC50 [nM]	SMILES
1 to 100	COc1cc(OC)c(Cl)c(NC(=O)c2csc3c(Nc4ccc5cn[nH]c5c4)ncnc23)c1Cl [Example 229, 4-(1H-indazol-6-ylamino)-N-(2,6-dichloro-3,5-dimethoxyphenyl) thieno[3,2-d]pyrimidine-7-carboxamide]
100 to 500	CCN1CCN(c2cccc(Nc3ncnc4c(C(=O)Nc5c(Cl)c(OC)cc(OC)c5Cl)csc34)c2)CC1 [Example 201, N-(2,6-dichloro-3,5-dimethoxyphenyl)-4-(3-(4-ethylpiperazin-1-yl)phenylamino) thieno[3,2-d]pyrimidine-7-carboxamide]
500 to 1000	COc1cc(OC)c(Cl)c(NC(=O)c2csc3c(Nc4nc5ccc(C)cc5s4)ncnc23)c1Cl [Example 225, N-(2,6-dichloro-3,5-dimethoxyphenyl)-4-(6-methylbenzo[d]thiazol-2-ylamino)thieno[3,2-d]pyrimidine-7-carboxamide]
1 to 100	CCN1CCN(Cc2ccc(Nc3ncnc4c(C(=O)Nc5c(Cl)c(OC)cc(OC)c5Cl)csc34)nc2)CC1 [Example 179, N-(2,6-dichloro-3,5-dimethoxyphenyl)-4-(5-((4-ethylpiperazin-1-yl)methyl)pyridin-2-ylamino)thieno[3,2-d]pyrimidine-7-carboxamide]
1 to 100	COc1cc(O)c(Cl)c(NC(=O)c2csc3c(N)ncnc23)c1Cl [Example 217, 4-Amino-N-(2,6-dichloro-3-hydroxy-5-methoxyphenyl)thieno[3,2-d]pyrimidine-7-carboxamide]
